# From patent publication US20260223848A1, “METHOD OF INCREASING SUGAR PRODUCTION FROM SUGARCANE” (CORTEVA AGRISCIENCE LLC, priority 2021, published 2026)
# Assays:
# Type in all cases: in vivo
# sugarcane [1] = assay: Sugarcane ripening field studies, florpyrauxifen-benzyl and haloxyfop-P-methyl; details: for ripening performance: versus the standards trinexapac and sulfometuron
# sugarcane [2] = assay: Sugarcane ripening field studies, halauxifen-methyl plus haloxyfop-P-methyl; details: six field studies, 30 days after application, rate g ai/ha: halauxifen-methyl 2.16, mixture 27 + 2.16, haloxyfop-P-methyl 27, sulfometuron 15, trinexapac 250; for Gain Fiber: untreated 0.5; for Gain POL: untreated 2.7; for Gain Purity: untreated 6.8; for Gain TRS: untreated 23.4
# ratoon sugarcane = assay: Ratoon sugarcane control field studies; details: for % Control: post application, 4 to 6 leaves, 50 to 60 cm
# Method: In order to study the activity of Haloxyfop-P-methyl as possible herbicide for ratoon sugarcane control, field studies were carried out. Haloxyfop-P-methyl was tested at 124; 248; 373; 620 and 1240 g ai/ha plus mineral oil at 0.5% v/v and compared to key standard, as glyphosate (Glizmax Prime®) at 2160 g ae/ha. Trials were sprayed postemergence with 4 to 6 leaves or 50 to 60 cm of ratoon sugarcane regrowth and assessed percentage of control at 14; 30; 45 and 60 days after application (DAA).
# [3] = 30 days after application, rate g ai/ha: haloxyfop-P-methyl 27, florpyrauxifen-benzyl 2.2, mixture 27 + 2.2, sulfometuron 15, trinexapac 250, untreated 0.6
# [4] = 30 days after application, rate g ai/ha: haloxyfop-P-methyl 27, florpyrauxifen-benzyl 2.2, mixture 27 + 2.2, sulfometuron 15, trinexapac 250, untreated 2.8
# [5] = 30 days after application, rate g ai/ha: haloxyfop-P-methyl 27, florpyrauxifen-benzyl 2.2, mixture 27 + 2.2, sulfometuron 15, trinexapac 250, untreated 7.2
# [6] = 30 days after application, rate g ai/ha: haloxyfop-P-methyl 27, florpyrauxifen-benzyl 2.2, mixture 27 + 2.2, sulfometuron 15, trinexapac 250, untreated 25.2
# [7] = 45 days after application, rate g ai/ha: haloxyfop-P-methyl 27, florpyrauxifen-benzyl 2.2, mixture 27 + 2.2, sulfometuron 15, trinexapac 250, untreated 1.2
# [8] = 45 days after application, rate g ai/ha: haloxyfop-P-methyl 27, florpyrauxifen-benzyl 2.2, mixture 27 + 2.2, sulfometuron 15, trinexapac 250, untreated 4.2
# [9] = 45 days after application, rate g ai/ha: haloxyfop-P-methyl 27, florpyrauxifen-benzyl 2.2, mixture 27 + 2.2, sulfometuron 15, trinexapac 250, untreated 7.7
# [10] = 45 days after application, rate g ai/ha: haloxyfop-P-methyl 27, florpyrauxifen-benzyl 2.2, mixture 27 + 2.2, sulfometuron 15, trinexapac 250, untreated 38.4
# [11] = single application 50 L/ha 60 days before harvest, 30 DAA, rate g ai/ha: florpyrauxifen-benzyl 2.2, sulfometuron 15, trinexapac 250, untreated 2.8
# [12] = single application 50 L/ha 60 days before harvest, 30 DAA, rate g ai/ha: florpyrauxifen-benzyl 2.2, sulfometuron 15, trinexapac 250, untreated 7.2
# [13] = single application 50 L/ha 60 days before harvest, 30 DAA, rate g ai/ha: florpyrauxifen-benzyl 2.2, sulfometuron 15, trinexapac 250, untreated 25.2
# [14] = single application 50 L/ha 60 days before harvest, 45 DAA, rate g ai/ha: florpyrauxifen-benzyl 2.2, sulfometuron 15, trinexapac 250, untreated 4.2
# [15] = single application 50 L/ha 60 days before harvest, 45 DAA, rate g ai/ha: florpyrauxifen-benzyl 2.2, sulfometuron 15, trinexapac 250, untreated 7.7
# [16] = single application 50 L/ha 60 days before harvest, 45 DAA, rate g ai/ha: florpyrauxifen-benzyl 2.2, sulfometuron 15, trinexapac 250, untreated 38.4
# [17] = 14.5 g ai/ha, single application 50 L/ha 60 days before harvest, 30 DAA
# [18] = 14.5 g ai/ha, single application 50 L/ha 60 days before harvest, 45 DAA
# [19] = 50 g ai/ha, single application 50 L/ha 60 days before harvest, 30 DAA
# [20] = 50 g ai/ha, single application 50 L/ha 60 days before harvest, 45 DAA
# [21] = 100 g ai/ha, single application 50 L/ha 60 days before harvest, 30 DAA
# [22] = 100 g ai/ha, single application 50 L/ha 60 days before harvest, 45 DAA
structure (smiles),measurement,setting,value
"CCOC(=O)C1CC(=O)C(=C(O)C2CC2)C(=O)C1 (stereo not drawn) [Trinexapac, trinexapac-ethyl]",Gain Fiber,sugarcane [1]; [3],0.4%
same,Gain POL,sugarcane [1]; [4],2.9%
same,Gain Purity,sugarcane [1]; [5],6.8%
same,Gain TRS,sugarcane [1]; [6],25.8 kg/ton
same,Gain Fiber,sugarcane [1]; [7],0.8%
same,Gain POL,sugarcane [1]; [8],3.8%
same,Gain Purity,sugarcane [1]; [9],5.8%
same,Gain TRS,sugarcane [1]; [10],34.9 kg/ton
same,Gain POL,sugarcane [1]; [11],2.9%
same,Gain Purity,sugarcane [1]; [12],6.8%
same,Gain TRS,sugarcane [1]; [13],25.0 kg/ton
same,Gain POL,sugarcane [1]; [14],3.8%
same,Gain Purity,sugarcane [1]; [15],5.8%
same,Gain TRS,sugarcane [1]; [16],34.9 kg/ton
same,Gain Fiber,sugarcane [2],0.4%
same,Gain POL,sugarcane [2],2.5%
same,Gain Purity,sugarcane [2],5.8%
same,Gain TRS,sugarcane [2],21.8 kg/ton
"COC(=O)[C@@H](C)Oc1ccc(Oc2ncc(C(F)(F)F)cc2Cl)cc1 [Haloxyfop-P-methyl, haloxyfop-P-methyl]",Gain POL,sugarcane [1]; [17],3.3%
same,Gain Purity,sugarcane [1]; [17],13.0%
same,Gain TRS,sugarcane [1]; [17],27.8 kg/ton
same,Gain POL,sugarcane [1]; [18],6.7%
same,Gain Purity,sugarcane [1]; [18],18.3%
same,Gain TRS,sugarcane [1]; [18],49.6 kg/ton
same,Gain POL,sugarcane [1]; [19],2.8%
same,Gain Purity,sugarcane [1]; [19],8.1%
same,Gain TRS,sugarcane [1]; [19],23.7 kg/ton
same,Gain POL,sugarcane [1]; [20],4.4%
same,Gain Purity,sugarcane [1]; [20],10.3%
same,Gain TRS,sugarcane [1]; [20],39.9 kg/ton
same,Gain POL,sugarcane [1]; [21],3.2%
same,Gain Purity,sugarcane [1]; [21],7.2%
same,Gain TRS,sugarcane [1]; [21],28.6 kg/ton
same,Gain POL,sugarcane [1]; [22],4.0%
same,Gain Purity,sugarcane [1]; [22],8.8%
same,Gain TRS,sugarcane [1]; [22],36.7 kg/ton
same,Gain Fiber,sugarcane [1]; [3],0.4%
same,Gain POL,sugarcane [1]; [4],2.6%
same,Gain Purity,sugarcane [1]; [5],6.1%
same,Gain TRS,sugarcane [1]; [6],23.7 kg/ton
same,Gain Fiber,sugarcane [1]; [7],0.1%
same,Gain POL,sugarcane [1]; [8],4.4%
same,Gain Purity,sugarcane [1]; [9],10.3%
same,Gain TRS,sugarcane [1]; [10],39.9 kg/ton
same,% Control,"ratoon sugarcane; 124 g ai/ha, 14 DAA",60.5%
same,% Control,"ratoon sugarcane; 124 g ai/ha, 30 DAA",86.5%
same,% Control,"ratoon sugarcane; 124 g ai/ha, 45 DAA",91.5%
same,% Control,"ratoon sugarcane; 124 g ai/ha, 60 DAA",89.8%
same,% Control,"ratoon sugarcane; 248 g ai/ha, 14 DAA",67.2%
same,% Control,"ratoon sugarcane; 248 g ai/ha, 30 DAA",88.7%
same,% Control,"ratoon sugarcane; 248 g ai/ha, 45 DAA",92.0%
same,% Control,"ratoon sugarcane; 248 g ai/ha, 60 DAA",90.8%
same,% Control,"ratoon sugarcane; 373 g ai/ha, 14 DAA",68.3%
same,% Control,"ratoon sugarcane; 373 g ai/ha, 30 DAA",91.0%
same,% Control,"ratoon sugarcane; 373 g ai/ha, 45 DAA",93.5%
same,% Control,"ratoon sugarcane; 373 g ai/ha, 60 DAA",92.2%
same,% Control,"ratoon sugarcane; 620 g ai/ha, 14 DAA",71.8%
same,% Control,"ratoon sugarcane; 620 g ai/ha, 30 DAA",94.7%
same,% Control,"ratoon sugarcane; 620 g ai/ha, 45 DAA",95.2%
same,% Control,"ratoon sugarcane; 620 g ai/ha, 60 DAA",94.8%
same,% Control,"ratoon sugarcane; 1240 g ai/ha, 14 DAA",74.5%
same,% Control,"ratoon sugarcane; 1240 g ai/ha, 30 DAA",95.2%
same,% Control,"ratoon sugarcane; 1240 g ai/ha, 45 DAA",96.3%
same,% Control,"ratoon sugarcane; 1240 g ai/ha, 60 DAA",95.5%
same,ratoon sugarcane control,ratoon sugarcane; rates from 373 to 1240 g ai/ha at 30 DAA,more than 90%
same,Gain Fiber,sugarcane [2],0.7%
same,Gain POL,sugarcane [2],2.9%
same,Gain Purity,sugarcane [2],6.6%
same,Gain TRS,sugarcane [2],24.7 kg/ton
"O=C(O)CNCP(=O)(O)O [Glyphosate, glyphosate]",% Control,"ratoon sugarcane; 2160 g ai/ha, 14 DAA",84.5%
same,% Control,"ratoon sugarcane; 2160 g ai/ha, 30 DAA",89.3%
same,% Control,"ratoon sugarcane; 2160 g ai/ha, 45 DAA",95.7%
same,% Control,"ratoon sugarcane; 2160 g ai/ha, 60 DAA",96.0%
"COC(=O)c1nc(-c2ccc(Cl)c(OC)c2F)cc(N)c1Cl [Halauxifen-methyl, halauxifen-methyl]",Gain Fiber,sugarcane [2],0.5%
same,Gain POL,sugarcane [2],3%
same,Gain Purity,sugarcane [2],7.1%
same,Gain TRS,sugarcane [2],25.4 kg/ton
"COC(=O)c1ccccc1S(=O)(=O)NC(=O)Nc1nc(C)cc(C)n1 [Sulfometuron, sulfometuron-methyl]",Gain Fiber,sugarcane [1]; [3],0.6%
same,Gain POL,sugarcane [1]; [4],2.4%
same,Gain Purity,sugarcane [1]; [5],6.5%
same,Gain TRS,sugarcane [1]; [6],21.3 kg/ton
same,Gain Fiber,sugarcane [1]; [7],0.6%
same,Gain POL,sugarcane [1]; [8],3.6%
same,Gain Purity,sugarcane [1]; [9],10.9%
same,Gain TRS,sugarcane [1]; [10],31.4 kg/ton
same,Gain POL,sugarcane [1]; [11],2.4%
same,Gain Purity,sugarcane [1]; [12],6.5%
same,Gain TRS,sugarcane [1]; [13],21.3 kg/ton
same,Gain POL,sugarcane [1]; [14],3.6%
same,Gain Purity,sugarcane [1]; [15],10.9%
same,Gain TRS,sugarcane [1]; [16],31.4 kg/ton
same,Gain Fiber,sugarcane [2],0.1%
same,Gain POL,sugarcane [2],1.9%
same,Gain Purity,sugarcane [2],1.9%
same,Gain TRS,sugarcane [2],15.9 kg/ton
"COc1c(Cl)ccc(-c2nc(C(=O)OCc3ccccc3)c(Cl)c(N)c2F)c1F [Florpyrauxifen-benzyl, florpyrauxifen-benzyl]",Gain Fiber,sugarcane [1]; [3],0.5%
same,Gain POL,sugarcane [1]; [4],2.6%
same,Gain Purity,sugarcane [1]; [5],7.5%
same,Gain TRS,sugarcane [1]; [6],23.0 kg/ton
same,Gain Fiber,sugarcane [1]; [7],1.5%
same,Gain POL,sugarcane [1]; [8],4.9%
same,Gain Purity,sugarcane [1]; [9],10.3%
same,Gain TRS,sugarcane [1]; [10],44.0 kg/ton
same,ripening performance,sugarcane [1]; at 30 DAA,comparable to the standards trinexapac and sulfometuron
same,ripening performance,sugarcane [1]; at 45 DAA,unexpectedly superior to the standards
same,Gain POL,sugarcane [1]; [11],2.6%
same,Gain Purity,sugarcane [1]; [12],7.5%
same,Gain TRS,sugarcane [1]; [13],23.0 kg/ton
same,Gain POL,sugarcane [1]; [14],4.9%
same,Gain Purity,sugarcane [1]; [15],10.3%
same,Gain TRS,sugarcane [1]; [16],44.0 kg/ton
